The numbers were not newly measured in PMC5228037, “Discovery and Mechanistic Characterization of Selective Inhibitors of H2S-producing Enzyme: 3-Mercaptopyruvate Sulfurtransferase (3MST) Targeting Active-site Cysteine Persulfide” (Scientific Reports, 2017), which cites them from elsewhere.

One series addresses 3MST. The following applies: cited from earlier work; for Inhibition constant Ki for 3MST: substrate-like inhibitors.
On the set-up of series [1]: method as in PMID 26269587. The following applies: cited from earlier work.

Consider `CC(=O)C(=O)O` [pyruvate], for which the “Inhibition constant Ki for 3MST” value on 3MST was “several”.
`O=C(O)CCS` [3-mercaptopropionic acid]: the “Inhibition constant Ki for 3MST” value on 3MST is on record as “several”.
One may read the Km as the substrate concentration at which the rate is half of its maximum. In the case of `O=C(O)C(=O)CS` [3MP, 3-mercaptopyruvate], the Michaelis-Menten constant (Km) in the series with 3MST (substrate, read-out: Michaelis constant Km for 3MST) is 4.08 mM.
Consider `N[C@@H](CSS)C(=O)O` [cysteine persulfide], for which the “calculated pKa” value in series [1] is reported as 4.34.
